According to US12116421B2, “Peptide-based Dopa containing adhesive gels” (KING ABDULLAH UNIVERSITY OF SCIENCE AND TECHNOLOGY, priority 2020, dated 2024):
Where a SMILES comes first, the peptide text is derived from it. [ ]: non-standard residue; d: D form. Dopa = N[C@@H](Cc1ccc(O)c(O)c1)C(=O)O; Cha = N[C@@H](CC1CCCCC1)C(=O)O

System: Acropora hemprichii fragments
Experiment: Adhesion of bigger coral fragments with IIZKDo glue to tile and 3D printed coral
Format: in vivo
From the text: The donor corals Acropora spp. shown in FIG. 36 were collected from the Red Sea.
In one embodiment, IIZKDo was used for the adhesion of bigger and heavier coral fragments to the 3D printed coral, which would be the situation in coral reef restoration. In gluing larger coral fragments, two different type of Acropora hemprichii were glued: some big fragments with an irregular base, and some smaller pieces with smooth base.
In one embodiment, the big fragments with irregular base and the smaller pieces with smooth base were attached to a tile. The cut small pieces of coral were attached to a special sheet for macrofragmentation so that these fragments further grew on the surface of the spreadsheet, in order to obtain fragments with a base smooth enough to stick them on the tile. After 15 days, the big fragments were still fully attached to the tile, whereas the small, flat fragments were all detached.
After verifying the best performing glue among the three DoIIZK, IIZDoK, IIZKDo, IIZKDo was selected to glue some coral fragments onto 3D printed PLA corals used for coral reef restoration project. Using a diagonal plier, the tip of each branch-like part (ca. 1.5-2.5 cm in length) of a donor Acropora hemprichii coral was gently cut to minimize damage to the coral itself. FIG. 36 illustrates the parts being cut from the donor coral. […] The initial donor coral was moved from a large shallow aquarium (230×148×140 cm) supplied with running seawater to a relatively shallow aquarium also outfitted with running seawater. While preparing the glue, the cut fragments were kept in a small shallow aquarium (72×54×29 cm) filled with sea water to not harm them until use. In the meantime, the glue was prepared by mixing IIZKDo 40 mg/mL in water and the mixture was poured on a glass slide and allowed to rest for about 5 minutes to equilibrate, as shown in FIG. 42. The cut coral fragment was removed from the aquarium, and cleaned, while moisture was allowed to absorb from the cut section with sterilized filter paper. The ceramic tile was cleaned twice with water, and then sea water to mimic the adhesion of the glue to a wet, salty surface.
A few drops of IIZKDo was applied at the surface of the cut section of the coral fragment, and the fragment was immediately glued at the surface of the tile, as shown in FIG. 43. As a control, some smaller fragments with smooth surface Acropora hemprichii, were glued using the same peptide-based glue.
The tile with attached coral fragments was placed in the original shallow aquarium (230×148×140 cm) to keep the coral in its natural environment as shown in FIG. 44 and checked after 3 days. Only the big fragments were still sticking on the tile. Therefore, only big fragments were then glued to the 3D printed poly-lactic acid (PLA) printed coral structure primed with MakerBot, which is a 3D printer based on fused deposition modeling method and grew in harsher conditions, such as in the presence of algae etc.

[1] = Big fragments with irregular base, n = 5, tile
[2] = Flat fragments with smooth base, n = 3, tile

**Q.** For CC[C@H](C)[C@H](NC(C)=O)C(=O)N[C@H](C(=O)N[C@@H](CC1CCCCC1)C(=O)N[C@@H](CCCCN)C(=O)N[C@@H](Cc1ccc(O)c(O)c1)C(N)=O)[C@@H](C)CC [IIZKDo, Ac-Ile-Ile-Cha-Lys-Dopa-NH2] (Ac-II[Cha]K[Dopa]-NH2), which “Survival after 15 days in the aquarium” value [1] is on record?
**A.** 5

**Q.** And the Survival after attachment [1]?
**A.** 5

**Q.** What about the “Survival after 15 days in the aquarium” value [2] of the same compound?
**A.** 0

**Q.** What about the Survival after attachment [2] of the same compound?
**A.** 3

**Q.** And the “time coral fragments kept glued to a 3D printed substrate” value (seawater)?
**A.** several months
